Test results from PMC5761851, “Application of a phenotypic drug discovery strategy to identify biological and chemical starting points for inhibition of TSLP production in lung epithelial cells” (PLoS ONE, 2018).
pIC50: −log10 of the molar value. Several values for one entry are separate records, joined by “and”; a condition that tells them apart may be missing. Identical values can stand only once. Like-named read-outs stand apart in the source and are kept apart here.

How the values were obtained:
[1] = system: CHO-K1 cells; assay: CHO-K1 viability (ATPlite); assay type: cell-based
Description: The viability of NHBE and CHO-K1 cells was quantified using ATP as an indirect read out of the potential cytotoxicity of the compounds. […] Plates were shaken and covered with aluminium foil for 25 min. Luminescence was measured in an Envision reader (Perkin Elmer). Evaluation of viability in CHO-K1 cells was used as an internal compound cytotoxicity standard across cellular assays. […] The plates were incubated for 24 h at 37°C in 5% CO2. After the incubation period, the culture medium was removed and washed with 100 μl of DPBS. Test compounds were dissolved and serially diluted in 100% DMSO. A final 1/100 dilution of each concentration was performed using F12 culture medium with 0.5% FBS. A volume of 100 μl culture medium containing the compounds or 1% DMSO (for control wells) was added to the wells containing the cells and the plate was incubated again 24h. After 24h of compound exposure, cells were washed with DPBS. Then, 100 μl of PBS were added, followed by the addition of 100 μl of ATPlite™ reagent. The plate was shaken for 25 minutes using a microtiter plate shaker. Luminescence was measured using a Luminoskan Ascent luminometer (Thermo Fisher Scientific).
For CHO-K1 viability assays, a standard curve of cells was included in the plate. Luminescence values versus cell number were plotted and the data adjusted to a linear equation. Luminescence values of the samples were interpolated to obtain number of cells. IC50 values were obtained by non-linear regression using Activity Base software (IDBS) and a four-parameter log equation.

[2] = system: TSLP production in NHBE cells; assay: TSLP HTRF assay (TSLP production in poly I:C / IL-4 stimulated NHBE cells); assay type: cell-based, human; parameters: Inhibition of TSLP production in NHBE (% as indicated): concentration or dose not given beside the values
Description: For dose response curves determinations, stocks of test compounds at a concentration of 1.33x10^-3 M in DMSO were sequentially diluted at 1:4 dilution steps before further 1/50 dilution in BEBM medium containing 1x ITS and 0.1% BSA. For the highest 4 μM concentration test compounds were resuspended in DMSO at a concentration of 2.5x10^-3 M and diluted 1/25 in BEBM medium containing 1x ITS and 0.1% BSA before adding 1 μl to the wells containing the cells.
All subsequent steps were automated using a Sciclone® G3 workstation (Perkin Elmer) with a Twister™ II robot (Perkin Elmer). […] 1 μl of test compound solution prepared at 25x concentration was added to the wells containing NHBE cells. The plates were then incubated during 90 minutes at 37°C, 5% CO2, 90% humidity before adding poly I:C (Invivogen HMW Tirl-pic-5) and human IL-4 (Peprotech 200–04) stimulus in 4 μl of BEBM medium containing 1x ITS, 0.1% BSA and 0.1% DMSO using a Multidrop™. […] Cells were then incubated for 24h in the presence of test compounds and stimulus at 37°C, 5% CO2 and 90% humidity conditions. After the 24h incubation period the plates were transferred to a CyBi®-Well platform (CyBio AG) to collect 10 μl of the supernatants which were transferred to a new plate. TSLP levels in the supernatant were determined using a homogeneous Time-Resolved Fluorescence (HTRF) assay custom developed by Cisbio. The assay was based in the use of a donor dye (europium cryptate) coupled to a monoclonal anti-TSLP antibody and an acceptor dye (d2) coupled to a second polyclonal anti-TSLP antibody. […] 10 μl of the resulting solution was then used to determine TSLP levels as described above.
The standard curve was built with eight points prepared in ITS/BSA in BEBM medium without supplements, starting at 700 pg/ml and diluted 1:2, with medium alone being zero TSLP. Fitting model corresponded to equation 100 of Excel fit software. Data from the primary phenotypic screen was visualized using Vortex (Dotmatics). […] For compound selection the maximum inhibition of the two individual duplicate values was taken into account. Dose response confirmation was performed at single point in the 2 donors tested. 9 point curves were run starting at 4 μM concentration by doing serial 1:4 dilutions in cells derived from both donors.

[3] = system: TBK1/IKKɛ, PDK-1, Aurora B, ERK8, MARK, NUAK1, MLK, c-Kit, CDK2/CyclinE, Chk1, GSK-3β, PKA, KDR, T-Fyn and PCK; parameters: method as in PMID 19307177; details: read-out: IC50 on BX795 targets within the pharmacological range; cited from earlier work
[4] = target: T1, mTOR (Homo sapiens, UniProt P42345); details: read-out: reported kinase inhibitory activity (IC50); cited from earlier work
T1 construct: Eurofins Pharma Discovery Services (contract assay service)

[5] = system: TSLP mRNA levels in NHBE cells; assay: TSLP mRNA real-time PCR (qPCR) in NHBE cells; assay type: cell-based, human; parameters: TSLP mRNA upregulation (% versus control) / % Inhibition of mRNA: dose or concentration left out as unconfirmed; details: for % Inhibition of mRNA at [4 μM] ± SD: NHBE donor #1, 6 h stimulation; for % Inhibition of mRNA: individual values, donor #1
[6] = Homo sapiens, NHBE, 24 h, NHBE cells donor #1, poly I:C / IL-4, 24h, geometric mean, read-out: Inhibition of TSLP protein production (IC50, μM) (95% CI)
[7] = individual values, donor #1, read-out: Inhibition of TSLP production in NHBE (IC50)

Structure (SMILES)	IC50 [2, 6]	pIC50 [2, 7]	% Inhibition of mRNA at [4 μM] ± SD [5]	% Inhibition of mRNA [5]	other results
COc1ccc(-c2ccc3c(N4CCOC[C@@H]4C)nc(N4CCOC[C@@H]4C)nc3n2)cc1CO [AZD8055, reference compound]	0.002 µM	9.01 and 8.32 and 8.33			Inhibition of CHO viability % Inhibition ± SD at 3.12 μM [1]: 20.47% ± 4.6 (n = 4)
O=C(NCCCNc1nc(Nc2cccc(NC(=O)N3CCCC3)c2)ncc1I)c1cccs1 [BX795, reference compound]					pIC50 [3]: > 6.00; pIC50 ([2]; Homo sapiens, NHBE, donor #1, representative curve, read-out: IC50): 7.23; pIC50 ([2]; Homo sapiens, NHBE, donor #2, representative curve, read-out: IC50): 7.10; IC50 ([2]; individual values, donor #1, read-out: Inhibition of TSLP production in NHBE (IC50, mM) by BX795, Donor #1): 0.048 µM and 0.059 µM and 0.168 µM and 0.177 µM; IC50 ([2]; individual values, donor #2, read-out: Inhibition of TSLP production in NHBE (IC50, mM) by BX795, Donor #2): 0.198 µM and 0.078 µM and 0.183 µM and 0.143 µM
CO[C@H]1C[C@@H]2CC[C@@H](C)[C@@](O)(O2)C(=O)C(=O)N2CCCC[C@H]2C(=O)O[C@H]([C@H](C)C[C@@H]2CC[C@@H](OCCO)[C@H](OC)C2)CC(=O)[C@H](C)/C=C(\C)[C@@H](O)[C@@H](OC)C(=O)[C@H](C)C[C@H](C)/C=C/C=C/C=C/1C [Everolimus, reference compound]					Inhibition of CHO viability % Inhibition ± SD at 3.12 μM [1]: -0.16% ± 2.3 (n = 4); inhibition at 0.031 µM ([2]; Homo sapiens, 0.031 μM, NHBE donor #1, read-out: Inhibition of TSLP protein production % Inhibition ± SD at): 79.4%; Inhibition of TSLP production in NHBE (% as indicated) ([2]; individual values, donor #1): 62.23% and 73.18% and 78.84% and 103.38%; pIC50 [4]: 8.70 to 9.00
COC(=O)Nc1nc2ccc(C(=O)c3cccs3)cc2[nH]1 [Nocodazole, reference compound]	0.9 µM	5.91 and 6.29 and 5.94	84.62 ± 1.76%	83.366% and 85.867%	
C[C@@H]1O[C@@H](O[C@H]2C[C@@H](O)[C@]3(CO)[C@H]4[C@H](O)C[C@]5(C)[C@@H](C6=CC(=O)OC6)CC[C@]5(O)[C@@H]4CC[C@]3(O)C2)[C@H](O)[C@H](O)[C@H]1O [Ouabain, reference compound]	0.016 µM	7.89 and 7.85	94.64 ± 0.33%	94.409% and 94.877%	pIC50 ([2]; Homo sapiens, NHBE, individual values, donor #1, read-out: Inhibition of TSLP production in NHBE (IC50)): 7.66
C[C@@H]1CCN(C(=O)CC#N)C[C@@H]1N(C)c1ncnc2[nH]ccc12 [Tofacitinib, reference compound]					Inhibition of CHO viability at [25 μM] % Inhibition ± SD ([1]; 25 μM): 0.37 ± 4.3%
COc1ccc(N(C)c2nc(NC/C=C(\C)CCC=C(C)C)nc3ccccc23)cc1 [compound 6]	0.101 µM	6.92 and 7.21 and 6.85	95.04 ± 0.77%	95.589% and 94.492%	
